Values of other authors as cited in US3963579A, “Microbiological process for the production of pepstatins” (Sanraku-Ocean Co., Ltd., priority 1973, dated 1976).
Square brackets hold non-standard residues; d marks the D form. Peptide text beside a SMILES is read from it. * marks the point of attachment. Sta = CC(C)C[C@H](N)[C@@H](O)CC(=O)O; Isovaleryl = CC(C)CC(=O)*

Conditions: clinical, reported

## CC(C)CC(=O)N[C@H](C(=O)N[C@H](C(=O)N[C@@H](CC(C)C)[C@@H](O)CC(=O)N[C@@H](C)C(=O)N[C@@H](CC(C)C)[C@@H](O)CC(=O)O)C(C)C)C(C)C [pepstatin A] (Isovaleryl-VV[Sta]A[Sta]-OH)
  effect on gastric ulcers clinically: takes effect on gastric ulcers clinically
